Laboratory results taken from patent US20080064735A1, “Method for controlling harmful organisms in crops of useful plants” (priority 2001, published 2008).

Tested on: Plutella xylostella
Assay: Plutella xylostella greenhouse spray test on cauliflower and Bt cauliflower (cry9C)
Assay type: in vivo
Experimental: Seven-week-old cauliflower plants (ordinary cauliflower, variety: Marner Allfrüh) and Bt cauliflower ([…], contains cry9C) were sprayed with the test insecticides with the aid of a track sprayer (200 l/ha). After drying, each of the plants was infected with 5 L2 larvae and 5 L3 larvae of Plutella xylostella. After 2, 4 and 7 days (DAA), feeding damage and mortality were scored. The test was carried out in a greenhouse at 23° C. and a relative atmospheric humidity of 60%.

[1] = 10 g active substance/ha, 2 DAA, Bt cauliflower
[2] = 10 g active substance/ha, 2 DAA, cauliflower
[3] = 10 g active substance/ha, 4 DAA, Bt cauliflower
[4] = 10 g active substance/ha, 4 DAA, cauliflower
[5] = 10 g active substance/ha, 7 DAA, Bt cauliflower
[6] = 10 g active substance/ha, 7 DAA, cauliflower
[7] = 30 g active substance/ha, 2 DAA, Bt cauliflower
[8] = 30 g active substance/ha, 2 DAA, cauliflower
[9] = 30 g active substance/ha, 4 DAA, Bt cauliflower
[10] = 30 g active substance/ha, 4 DAA, cauliflower
[11] = 30 g active substance/ha, 7 DAA, Bt cauliflower
[12] = 30 g active substance/ha, 7 DAA, cauliflower
[13] = 1 g active substance/ha, 2 DAA, Bt cauliflower
[14] = 1 g active substance/ha, 2 DAA, cauliflower
[15] = 1 g active substance/ha, 4 DAA, Bt cauliflower
[16] = 1 g active substance/ha, 4 DAA, cauliflower
[17] = 1 g active substance/ha, 7 DAA, Bt cauliflower
[18] = 1 g active substance/ha, 7 DAA, cauliflower
[19] = 3 g active substance/ha, 2 DAA, Bt cauliflower
[20] = 3 g active substance/ha, 2 DAA, cauliflower
[21] = 3 g active substance/ha, 4 DAA, Bt cauliflower
[22] = 3 g active substance/ha, 4 DAA, cauliflower
[23] = 3 g active substance/ha, 7 DAA, Bt cauliflower
[24] = 3 g active substance/ha, 7 DAA, cauliflower
[25] = 100 g active substance/ha, 2 DAA, Bt cauliflower
[26] = 100 g active substance/ha, 2 DAA, cauliflower
[27] = 100 g active substance/ha, 4 DAA, Bt cauliflower
[28] = 100 g active substance/ha, 4 DAA, cauliflower
[29] = 100 g active substance/ha, 7 DAA, Bt cauliflower
[30] = 100 g active substance/ha, 7 DAA, cauliflower

C/C(=N\C#N)N(C)Cc1ccc(Cl)nc1 [Acetamiprid]
10%: % feeding damage [2] | % feeding damage [8]
12%: % feeding damage [4] | % feeding damage [10]
15%: % feeding damage [6] | % feeding damage [12]
100%: % mortality [1] | % mortality [3] | % mortality [5] | % mortality [7] | % mortality [9] | % mortality [11]
0%: % feeding damage [1] | % mortality [2] | % feeding damage [3] | % mortality [4] | % feeding damage [5] | % mortality [6] | % feeding damage [7] | % mortality [8] | % feeding damage [9] | % mortality [10] | % feeding damage [11] | % mortality [12]

N#Cc1nn(-c2c(Cl)cc(C(F)(F)F)cc2Cl)c(N)c1[S+]([O-])C(F)(F)F (stereo not drawn) [Fipronil]
100%: % mortality [15] | % mortality [17] | % mortality [19] | % mortality [21] | % mortality [23] | % mortality [1] | % mortality [3] | % mortality [5] | % mortality [7] | % mortality [9] | % mortality [10] | % mortality [11] | % mortality [12] | % mortality [25] | % mortality [26] | % mortality [27] | % mortality [28] | % mortality [29] | % mortality [30]
8%: % feeding damage [2] | % feeding damage [4]
12%: % feeding damage [18] | % feeding damage [24]
70%: % mortality [13] | % mortality [8]
50%: % mortality [6]
4%: % feeding damage [8]
1%: % feeding damage [26] | % feeding damage [28] | % feeding damage [30]
5%: % feeding damage [10] | % feeding damage [12]
20%: % mortality [20] | % mortality [22] | % mortality [24] | % mortality [2] | % mortality [4]
10%: % feeding damage [14] | % feeding damage [16] | % feeding damage [20] | % feeding damage [22] | % feeding damage [6]
0%: % feeding damage [13] | % mortality [14] | % feeding damage [15] | % mortality [16] | % feeding damage [17] | % mortality [18] | % feeding damage [19] | % feeding damage [21] | % feeding damage [23] | % feeding damage [1] | % feeding damage [3] | % feeding damage [5] | % feeding damage [7] | % feeding damage [9] | % feeding damage [11] | % feeding damage [25] | % feeding damage [27] | % feeding damage [29]
